Assay results: patent publication US20060217395A1, “Combinations of paroxetine and 4- (s) - (4-acetyl-piperazin-1-yl) -2- (r)- (4-fluoro-2-methyl- phenyl -piperidine-1-carboxylic acid [1- (r) (3,5-bis-trifluoromethyl-phenyl) -ethyl] methylamide for treatment of depression and / or anxiety” (GLAXO GROUP LIMITED, priority 2003, published 2006)
Counter-ions that a name gives are not always drawn.

Tested on: mongolian gerbils
Assay: gerbil social interaction model (social stress assay)
Type: in vivo
Conditions: one hour after administration
Method: Paroxetine hydrochloride hemihydrate (0.03 mg/kg p.o of the paroxetine measured as the free base), 4-(S)-(4-Acetyl-piperazin-1-yl)-2-(R)-(4-fluoro-2-methyl-phenyl)-piperidine-1-carboxylic acid [1-(R)-(3,5-bis-trifluoromethyl-phenyl)-ethyl]-methylamide methansulphonate (hereinafter compound A) (0.03 mg/kg i.p of the compound A measured as the free base) and a combination of paroxetine (0.03 mg/kg p.o. of the paroxetine measured as the free base) and compound A (0.03 mg/kg i.p. of the compound A measured as the free base) were administered independently in mongolian gerbils to assess the effect on time spent in active social interactions.
The results obtained one hour after administration, expressed as a percentage variation of the time spent in active social interactions by each animal in respect to the value obtained by treatment of control animals, are summarised in table 1.

How did the “% variation of the time spent in active social interactions in respect to control animals” value (0.03 mg/kg i.p. (measured as the free base)) turn out when `CC(=O)N1CCN([C@H]2CCN(C(=O)N(C)[C@H](C)c3cc(C(F)(F)F)cc(C(F)(F)F)c3)[C@@H](c3ccc(F)cc3C)C2)CC1.CS(=O)(=O)O` [Compound A, 4-(S)-(4-Acetyl-piperazin-1-yl)-2-(R)-(4-fluoro-2-methyl-phenyl)-piperidine-1-carboxylic acid [1-(R)-(3,5-bis-trifluoromethyl-phenyl)-ethyl]-methylamide methansulphonate] was run?
The value was 20.7%.

`Fc1ccc([C@@H]2CCNC[C@H]2COc2ccc3c(c2)OCO3)cc1` [Paroxetine hydrochloride hemihydrate, (−)trans-4-(4′-fluorophenyl)3-(3′-4′-methylenedioxyphenoxymethyl) piperidine] was tested. Which “% variation of the time spent in active social interactions in respect to control animals” value (0.03 mg/kg p.o. (measured as the free base)) did it give?
The value was −2.4%.
